Laboratory results published in ChEMBL document CHEMBL1201862, “PubChem BioAssay data set” (2004).
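Interpolation was linear, between the two tested concentrations surrounding the appropriate level; five concentrations were tested over 48 hours in 96-well plates. GI50 is the concentration that inhibits growth by half.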 Activity calls are given as the source filed them. Rule as the data show it: active = GI50 up to about 1.1 µM and inactive = higher.

Legend:
Assay in all cases: NCI tumour cell line growth inhibition, 48 h
786-0 = test system: 786-0
DU-145 = test system: DU-145
EKVX = test system: EKVX
HCC 2998 = test system: HCC 2998
HT-29 = test system: HT-29
IGROV-1 = test system: IGROV-1
KM12 = test system: KM12
M14 = test system: M14
MDA-MB-231 = test system: MDA-MB-231
NCI-H23 = test system: NCI-H23
NCI-H522 = test system: NCI-H522
OVCAR-4 = test system: OVCAR-4
RPMI-8226 = test system: RPMI-8226
RXF 393 = test system: RXF 393
SF-539 = test system: SF-539
SN12C = test system: SN12C
U-251 = test system: U-251
UACC-62 = test system: UACC-62
HOP-92 = test system: HOP-92
SK-MEL-28 = test system: SK-MEL-28

SMILES | GI50 (786-0) | GI50 (DU-145) | GI50 (EKVX) | GI50 (HCC 2998) | GI50 (HT-29) | GI50 (IGROV-1) | GI50 (KM12) | GI50 (M14) | GI50 (MDA-MB-231) | GI50 (NCI-H23) | GI50 (NCI-H522) | GI50 (OVCAR-4) | GI50 (RPMI-8226) | GI50 (RXF 393) | GI50 (SF-539) | GI50 (SN12C) | GI50 (U-251) | GI50 (UACC-62) | GI50 (HOP-92) | GI50 (SK-MEL-28)
COc1cc(C2C3=C(COC3=O)Oc3cc4c(cc32)OCO4)cc(OC)c1OC(C)=O (stereo not given) | 0.0186 µM (active) | 0.0381 µM (active) | 0.0435 µM (active) | 0.0547 µM (active) | 0.0262 µM (active) | 0.0239 µM (active) | 0.0135 µM (active) | 0.0216 µM (active) | 0.038 µM (active) | 0.0233 µM (active) | < 0.01 µM (active) | 29.6 µM (inactive) | 0.0318 µM (active) | < 0.01 µM (active) | < 0.01 µM (active) | 0.619 µM (active) | 0.0388 µM (active) | < 0.01 µM (active) | – | –
O=C(O)CSCCc1ccccc1 | > 100 µM (inactive) | > 100 µM (inactive) | > 100 µM (inactive) | – | > 100 µM (inactive) | > 100 µM (inactive) | > 100 µM (inactive) | > 100 µM (inactive) | > 100 µM (inactive) | > 100 µM (inactive) | > 100 µM (inactive) | > 100 µM (inactive) | > 100 µM (inactive) | > 100 µM (inactive) | > 100 µM (inactive) | > 100 µM (inactive) | > 100 µM (inactive) | > 100 µM (inactive) | > 100 µM (inactive) | > 100 µM (inactive)
CCOC(=O)C(C)c1nc2c(Cl)c3ncccc3cc2[nH]c1=O (stereo not given) | > 100 µM (inactive) | > 100 µM (inactive) | 31 µM (inactive) | – | 30.7 µM (inactive) | 62.2 µM (inactive) | 43.8 µM (inactive) | 44.8 µM (inactive) | 79.1 µM (inactive) | 77.1 µM (inactive) | 50.7 µM (inactive) | 57.9 µM (inactive) | 22.1 µM (inactive) | 62.8 µM (inactive) | – | > 100 µM (inactive) | 30.8 µM (inactive) | 43.5 µM (inactive) | 29.8 µM (inactive) | > 100 µM (inactive)
O=C(C(Cl)Cl)N(O)c1ccccc1OCc1ccccc1 | 83.2 µM (inactive) | 17 µM (inactive) | 22 µM (inactive) | 1.9 µM (inactive) | 17.2 µM (inactive) | 68.2 µM (inactive) | 28.2 µM (inactive) | > 100 µM (inactive) | 44.8 µM (inactive) | > 100 µM (inactive) | 25.6 µM (inactive) | 26.6 µM (inactive) | 34.2 µM (inactive) | 86.3 µM (inactive) | 31.3 µM (inactive) | 49.2 µM (inactive) | 38.5 µM (inactive) | 24.3 µM (inactive) | – | 37.4 µM (inactive)
O=c1cccc(Cl)[nH]1 | > 100 µM (inactive) | > 100 µM (inactive) | > 100 µM (inactive) | – | > 100 µM (inactive) | > 100 µM (inactive) | > 100 µM (inactive) | > 100 µM (inactive) | > 100 µM (inactive) | > 100 µM (inactive) | > 100 µM (inactive) | > 100 µM (inactive) | > 100 µM (inactive) | > 100 µM (inactive) | > 100 µM (inactive) | > 100 µM (inactive) | > 100 µM (inactive) | > 100 µM (inactive) | > 100 µM (inactive) | > 100 µM (inactive)
CCN1C(=O)C(C)S/C1=N\NC(=O)CSc1nc2ccccc2c(=O)n1CC (stereo not given) | > 100 µM (inactive) | > 100 µM (inactive) | > 100 µM (inactive) | > 100 µM (inactive) | – | > 100 µM (inactive) | > 100 µM (inactive) | > 100 µM (inactive) | > 100 µM (inactive) | > 100 µM (inactive) | > 100 µM (inactive) | 92 µM (inactive) | > 100 µM (inactive) | > 100 µM (inactive) | > 100 µM (inactive) | > 100 µM (inactive) | > 100 µM (inactive) | > 100 µM (inactive) | – | > 100 µM (inactive)
CC#CCCCC1(C)CCCNC1=S (stereo not given) | > 10 µM (inactive) | > 10 µM (inactive) | > 10 µM (inactive) | – | > 10 µM (inactive) | > 10 µM (inactive) | > 10 µM (inactive) | > 10 µM (inactive) | > 10 µM (inactive) | > 10 µM (inactive) | > 10 µM (inactive) | > 10 µM (inactive) | – | > 10 µM (inactive) | > 10 µM (inactive) | > 10 µM (inactive) | > 10 µM (inactive) | > 10 µM (inactive) | > 10 µM (inactive) | –
COc1ccc(/C=N\N2CC(=O)N3C4C=CC(CC4)N3C2=O)cc1 (stereo not given) | > 100 µM (inactive) | > 100 µM (inactive) | > 100 µM (inactive) | – | > 100 µM (inactive) | > 100 µM (inactive) | > 100 µM (inactive) | > 100 µM (inactive) | > 100 µM (inactive) | > 100 µM (inactive) | – | – | > 100 µM (inactive) | – | > 100 µM (inactive) | > 100 µM (inactive) | > 100 µM (inactive) | 74.8 µM (inactive) | > 100 µM (inactive) | > 100 µM (inactive)
CNC(Cc1ccccc1)c1cccc(OC)c1O (stereo not given) | > 100 µM (inactive) | > 100 µM (inactive) | 92.9 µM (inactive) | – | 91.6 µM (inactive) | > 100 µM (inactive) | > 100 µM (inactive) | > 100 µM (inactive) | > 100 µM (inactive) | > 100 µM (inactive) | > 100 µM (inactive) | > 100 µM (inactive) | – | > 100 µM (inactive) | – | > 100 µM (inactive) | > 100 µM (inactive) | > 100 µM (inactive) | > 100 µM (inactive) | > 100 µM (inactive)
CSc1cc(Cl)c(C)cc1S(=O)(=O)NC(=O)NNc1ccccn1 | > 100 µM (inactive) | > 100 µM (inactive) | > 100 µM (inactive) | > 100 µM (inactive) | > 100 µM (inactive) | > 100 µM (inactive) | > 100 µM (inactive) | > 100 µM (inactive) | > 100 µM (inactive) | – | > 100 µM (inactive) | > 100 µM (inactive) | – | > 100 µM (inactive) | > 100 µM (inactive) | > 100 µM (inactive) | > 100 µM (inactive) | – | – | > 100 µM (inactive)
Nc1ccc(SC23CC4CC(CC(C4)C2)C3)cc1 | > 100 µM (inactive) | > 100 µM (inactive) | > 100 µM (inactive) | > 100 µM (inactive) | > 100 µM (inactive) | > 100 µM (inactive) | > 100 µM (inactive) | > 100 µM (inactive) | > 100 µM (inactive) | > 100 µM (inactive) | > 100 µM (inactive) | – | > 100 µM (inactive) | 27.5 µM (inactive) | > 100 µM (inactive) | > 100 µM (inactive) | 78.3 µM (inactive) | > 100 µM (inactive) | – | > 100 µM (inactive)
CCCCNC(=S)Nc1nc(C(=O)NNC(=S)NCc2ccccc2)cs1 | 39.4 µM (inactive) | 39.6 µM (inactive) | 42.8 µM (inactive) | 36.6 µM (inactive) | 37.2 µM (inactive) | 30.1 µM (inactive) | 49.1 µM (inactive) | 38.6 µM (inactive) | 66.4 µM (inactive) | 75 µM (inactive) | 48.5 µM (inactive) | 35.3 µM (inactive) | 45.9 µM (inactive) | – | 31.9 µM (inactive) | 31 µM (inactive) | 34.5 µM (inactive) | 19 µM (inactive) | – | –
CSC1=Nc2ccccc2-c2nc(-c3ccccc3)cc(-c3ccccc3)c2C1 | 10.2 µM (inactive) | 60.4 µM (inactive) | 23.1 µM (inactive) | 41.6 µM (inactive) | 30.5 µM (inactive) | 10 µM (inactive) | 24.9 µM (inactive) | 13.9 µM (inactive) | 14.2 µM (inactive) | 12.4 µM (inactive) | 4.7 µM (inactive) | 8.93 µM (inactive) | > 100 µM (inactive) | 6.5 µM (inactive) | 19.2 µM (inactive) | 28.2 µM (inactive) | 7.03 µM (inactive) | 9.77 µM (inactive) | – | 35.6 µM (inactive)
C(=N\c1nc2cc3sc(/N=C/c4cccs4)nc3cc2s1)/c1cccs1 | > 100 µM (inactive) | > 100 µM (inactive) | 34.4 µM (inactive) | – | 44.8 µM (inactive) | > 100 µM (inactive) | > 100 µM (inactive) | > 100 µM (inactive) | > 100 µM (inactive) | 69.2 µM (inactive) | 45.2 µM (inactive) | > 100 µM (inactive) | > 100 µM (inactive) | > 100 µM (inactive) | > 100 µM (inactive) | 72.9 µM (inactive) | > 100 µM (inactive) | – | > 100 µM (inactive) | > 100 µM (inactive)
Cc1c(N2C(=O)C(Cl)C2/C=C/c2ccccc2)c(=O)n(-c2ccccc2)n1C (stereo not given) | 24.9 µM (inactive) | 34.6 µM (inactive) | 6.41 µM (inactive) | – | 24.4 µM (inactive) | 17.1 µM (inactive) | 12.7 µM (inactive) | 17.2 µM (inactive) | 25.4 µM (inactive) | 7.59 µM (inactive) | 14.4 µM (inactive) | 29.5 µM (inactive) | 11.3 µM (inactive) | 26.9 µM (inactive) | 22.4 µM (inactive) | 20.4 µM (inactive) | 6.22 µM (inactive) | 14.9 µM (inactive) | 14.1 µM (inactive) | –
Cc1ccc(S(=O)(=O)N2CCCC2C(=O)O[C@H]2CC[C@H]3CC=C[C@H]32)cc1 (stereo not given in full) | 18.9 µM (inactive) | > 10 µM (inactive) | 65.6 µM (inactive) | 67.6 µM (inactive) | 40.3 µM (inactive) | 41.3 µM (inactive) | > 100 µM (inactive) | 38.7 µM (inactive) | 63.4 µM (inactive) | 35.6 µM (inactive) | > 10 µM (inactive) | > 55.8 µM (inactive) | 17.1 µM (inactive) | – | > 10 µM (inactive) | 27.8 µM (inactive) | 45.4 µM (inactive) | 97.3 µM (inactive) | – | 29.9 µM (inactive)
